Earlier results as cited in patent US4808590A (priority 1988, dated 1989).

Settings: British Patent Specification Nos. 1,078,049 and 932,875; cited from earlier work

C=C1C[C@](OC)([C@H](O)C(=O)N[C@@H](OC)[C@@H]2C[C@@H](O)C(C)(C)[C@@H](C[C@@H](COC)OC)O2)O[C@H](C)[C@@H]1C [Pederin]
antimitotic activity: shows antimitotic activity
